Assay results published in patent US20250230193A1, “CYCLIC COMPOUND HAVING SELECTIVE KRAS INHIBITORY EFFECT ON HRAS AND NRAS” (CHUGAI SEIYAKU KABUSHIKI KAISHA, priority 2022, published 2025).
Where a SMILES comes first, the peptide text is derived from it. Bridges are numbered along the chain shown (N, C = ends). [ ]: non-standard residue; d: D form. The star is where a group is joined. hPhe(3-Cl-4-CF3) = N[C@@H](CCc1ccc(C(F)(F)F)c(Cl)c1)C(=O)O; NPrPhe(4-CF3) = CCCN[C@@H](Cc1ccc(C(F)(F)F)cc1)C(=O)O; NMeGly(cPent) = CN[C@H](C(=O)O)C1CCCC1; Hyp = O=C(O)[C@@H]1C[C@@H](O)CN1; NMeL = CN[C@@H](CC(C)C)C(=O)O; Morpholide = C1CN(*)CCO1; Ac5c = NC1(C(=O)O)CCCC1; Sar = CNCC(=O)O

Experiments:
[1] = biological target: GDP-bound NRAS wild-type protein (Homo sapiens, UniProt P01111); assay: Binding to NRAS by surface plasmon resonance (SPR), Single Cycle Kinetics; conditions: SPR
[2] = biological target: GDP-bound HRAS wild-type protein (Homo sapiens, UniProt P01112); assay: Binding to HRAS by surface plasmon resonance (SPR), Single Cycle Kinetics; conditions: SPR
[3] = KD ratio, GDP-bound NRAS wild-type vs GDP-bound KRAS wild-type
[4] = KD ratio, GDP-bound HRAS wild-type vs GDP-bound KRAS wild-type

Chain of GDP-bound NRAS wild-type protein (P01111 whole entry): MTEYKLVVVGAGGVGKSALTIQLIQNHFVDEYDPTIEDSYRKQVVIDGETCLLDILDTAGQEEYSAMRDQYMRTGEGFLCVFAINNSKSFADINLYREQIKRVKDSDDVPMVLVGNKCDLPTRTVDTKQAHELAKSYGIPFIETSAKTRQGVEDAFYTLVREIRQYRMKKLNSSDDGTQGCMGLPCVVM
Chain of GDP-bound HRAS wild-type protein (P01112 whole entry): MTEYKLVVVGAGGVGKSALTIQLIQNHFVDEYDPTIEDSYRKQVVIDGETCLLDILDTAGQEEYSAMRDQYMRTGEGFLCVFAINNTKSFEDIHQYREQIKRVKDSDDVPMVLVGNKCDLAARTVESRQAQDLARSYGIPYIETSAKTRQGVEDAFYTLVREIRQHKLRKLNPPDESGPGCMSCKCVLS

SMILES: CCC[C@H]1C(=O)N[C@@H]([C@@H](C)CC)C(=O)N(C)CC(=O)N(C)[C@H]2C/C=C\CCN(C2=O)[C@@H](Cc2ccc(C)cc2)C(=O)N(C)CC(=O)N[C@@H](CCc2ccc(C(F)(F)F)c(OC)c2)C(=O)N2CC3(CC3)C[C@H]2C(=O)NC2(CC(C)(C)C2)C(=O)N(C)[C@@H](CC(C)C)C(=O)N(C)[C@H](C(=O)N(C)C)CC(=O)N1C [PP3013]
- NRAS/KRAS (ratio of KD value with respect to GDP-bound NRAS wild-type protein to KD value with respect to KRAS) ([1]; KD ratio NRAS/KRAS, GDP-bound wild-type proteins): AA (a compound having 20 or more is denoted as AA)
- HRAS/KRAS (ratio of KD value with respect to GDP-bound HRAS wild-type protein to KD value with respect to KRAS) ([2]; KD ratio HRAS/KRAS, GDP-bound wild-type proteins): B (a compound having 3 or more and less than 10 is denoted as B)

SMILES: CCO[C@@H]1C[C@H]2C(=O)NC3(CCCC3)C(=O)N(C)[C@@H](C3CCCC3)C(=O)N(C)[C@H](C(=O)N3CCOCC3)CC(=O)N(C)[C@@H](COC)C(=O)N[C@@H]([C@@H](C)CC)C(=O)N(C)CC(=O)N(C)[C@H]3CCCCCN(C3=O)[C@@H](Cc3ccc(C(F)(F)F)cc3)C(=O)N(C)CC(=O)N[C@@H](CCc3cc(F)c(C(F)(F)F)c(F)c3)C(=O)N2C1 [PP0841]
- NRAS/KRAS (ratio of KD value with respect to NRAS to KD value with respect to KRAS) [1, 3]: B (a compound having 3 or more and less than 10 is denoted as B)
- HRAS/KRAS (ratio of KD value with respect to HRAS to KD value with respect to KRAS) [2, 4]: B (a compound having 3 or more and less than 10 is denoted as B)

SMILES: CC[C@H](C)[C@@H]1NC(=O)[C@H](CC(C)C)N(C)C(=O)C[C@@H](C(=O)N(C)C)N(C)C(=O)[C@H](C2CCCC2)N(C)C(=O)C2(CCC2)N(C)C(=O)[C@@H]2CCCN2C(=O)[C@H](CCc2cc(F)c(C(F)(F)F)c(F)c2)NC(=O)CN(C)C(=O)[C@H](Cc2ccc(C)cc2)N2CC/C=C\C[C@@H](C2=O)N(C)C(=O)CN(C)C1=O [PP1791]
- NRAS/KRAS (ratio of KD value for NRAS to KD value for KRAS) [1, 3]: A (a compound having 10 or more and less than 20 is denoted as A)
- HRAS/KRAS (ratio of KD value for HRAS to KD value for KRAS) [2, 4]: A (a compound having 10 or more and less than 20 is denoted as A)

SMILES: CC[C@H](C)[C@@H]1NC(=O)[C@H](C(C)C)N(C)C(=O)C[C@@H](C(=O)N(C)C)N(C)C(=O)[C@H](C2CCCC2)N(C)C(=O)C2(CC(C)(C)C2)NC(=O)[C@@H]2C[C@H](C)CN2C(=O)[C@H](CCc2ccc(C(F)(F)F)c(OC)c2)NC(=O)CN(C)C(=O)[C@H](Cc2ccc(C(F)(F)F)cc2)N2CC/C=C\C[C@@H](C2=O)N(C)C(=O)CN(C)C1=O [PP2005]
- NRAS/KRAS (ratio of KD value for NRAS to KD value for KRAS) [1, 3]: A (a compound having 10 or more and less than 20 is denoted as A)
- HRAS/KRAS (ratio of KD value for HRAS to KD value for KRAS) [2, 4]: A (a compound having 10 or more and less than 20 is denoted as A)

SMILES: CC[C@H](C)[C@@H]1NC(=O)[C@H](C)N(C)C(=O)C[C@@H](C(=O)N(C)C)N(C)C(=O)[C@H](C2CCCC2)N(C)C(=O)C2(CCC2)NC(=O)[C@@H]2CC(F)(F)CN2C(=O)[C@H](CCc2cc(F)c(C(F)(F)F)c(F)c2)NC(=O)CN(C)C(=O)[C@H](Cc2ccc(C(F)(F)F)cc2)N2CCCCC[C@@H](C2=O)N(C)C(=O)CN(C)C1=O [PP0473]
- NRAS/KRAS (ratio of KD value with respect to GDP-bound NRAS wild-type protein to KD value with respect to KRAS) ([1]; KD ratio NRAS/KRAS): C (A compound having a KD ratio of 0.1 or more and less than 3 is denoted as C)
- HRAS/KRAS (ratio of KD value with respect to GDP-bound HRAS wild-type protein to KD value with respect to KRAS) ([2]; KD ratio HRAS/KRAS): C (A compound having a KD ratio of 0.1 or more and less than 3 is denoted as C)

SMILES: CC[C@H](C)[C@@H]1NC(=O)[C@H](CC)N(C)C(=O)C[C@@H](C(=O)N(C)C)N(CC)C(=O)[C@H](C2CCCC2)N(C)C(=O)C2(CCC2)NC(=O)[C@@H]2C[C@@H](N3CCC(F)(F)CC3)CN2C(=O)[C@H](CCc2cc(F)c(C(F)(F)F)c(F)c2)NC(=O)CN(C)C(=O)[C@H](Cc2ccc(C(F)(F)F)cc2)N2CCCC[C@@H](C2=O)N(C)C(=O)CN(C)C1=O [PP0733]
- NRAS/KRAS (ratio of KD value with respect to GDP-bound NRAS wild-type protein to KD value with respect to KRAS) ([1]; KD ratio NRAS/KRAS): B (a compound having 3 or more and less than 10 is denoted as B)
- HRAS/KRAS (ratio of KD value with respect to GDP-bound HRAS wild-type protein to KD value with respect to KRAS) ([2]; KD ratio HRAS/KRAS): B (a compound having 3 or more and less than 10 is denoted as B)

SMILES: CCCN1C(=O)CN(C)C(=O)CN(C)C(=O)[C@H]([C@@H](C)CC)NC(=O)[C@H](CC(C)C)N(C)C(=O)C[C@@H](C(=O)N2CCOCC2)NC(=O)[C@H](C2CCCC2)N(C)C(=O)C2(CCCC2)NC(=O)[C@@H]2C[C@@H](OCC)CN2C(=O)[C@H](CCc2ccc(C(F)(F)F)c(Cl)c2)NC(=O)CN(C)C(=O)[C@@H]1Cc1ccc(C(F)(F)F)cc1 [PP0323] ([NMeL]I[Sar][Sar][NPrPhe(4-CF3)][Sar][hPhe(3-Cl-4-CF3)][Hyp](Et)[Ac5c][NMeGly(cPent)]D-Morpholide; lactam N-11)
- NRAS/KRAS (ratio of KD for GDP-bound NRAS wild-type to KD for KRAS) ([1]; KD ratio NRAS/KRAS): B (a compound having 3 or more and less than 10 is denoted as B)
- HRAS/KRAS (ratio of KD for GDP-bound HRAS wild-type to KD for KRAS) ([2]; KD ratio HRAS/KRAS): B (a compound having 3 or more and less than 10 is denoted as B)
